The results in this text go back to US20050256184A1, “1,2,4-Trioxanes and 1,2,4-trioxepanes” (priority 2004, published 2005).

Each structure is given as a SMILES string. Read-outs that look alike come from different tables or passages of the source.

One data set relates to K1 Plasmodium falciparum. Briefly: In vitro antimalarial activity, 48-h [3H]-hypoxanthine incorporation sensitivity assay. The class given is cell-based. Here is the method:
Antimalarial activity. The K1 strain of Plasmodium falciparum was used in this study. This strain is known to be CQ resistant Parasites were maintained in continuous culture using the method of Jensen and Trager (Trager, W; Jenson, J. B. Human Malaria Parasites in Continuous Culture. Science, 1976, 193, 673-675). Cultures were grown in flasks containing human erythrocytes (2-5%) with parasitemia in the range of 1% to 10% suspended in RPMI 1640 medium supplemented with 25 mM HEPES and 32 mM NaHCO3, and 10% human serum (complete medium). Cultures were gassed with a mixture of 3% O2, 4% CO2 and 93% N2. Antimalarial activity was assessed with an adaption of the 48-h sensitivity assay of Desjardins et al. using [^3H]-hypoxanthine incorporation as an assessment of parasite growth (Desjardins, R. E.; Canfield, C. J.; Haynes, J. D.; Chulay, J. D. Quantitative Assessment of Antimalarial activity in vitro by Semi-automated Microdilution Technique. Antimicrob. Agents Chemother., 1979, 16, 710-718). Stock drug solutions were prepared in 100% dimethylsulphoxide (DMSO) and diluted to the appropriate concentration using complete medium. Assays were performed in sterile 96-well microtitre plates, each plate contained 200 μl of parasite culture (2% parasitemia, 0.5% haematocrit) with or without 10 μl drug dilutions. Each drug was tested in triplicate and parasite growth compared to control wells (which consituted 100% parasite growth). After 24-h incubation at 37° C., 0.5 μCi hypoxanthine was added to each well. Cultures were incubated for a further 24 h before they were harvested onto filter-mats, dried for 1 h at 55° C. and counted using a Wallac 1450 Microbeta Trilux Liquid scintillation and luminescence counter. IC50 values were calculated by interpolation of the probit transformation of the log dose-response curve.

The mark [1] stands for this setting: Erythrocyte, K1 strain (chloroquine resistant) of Plasmodium falciparum in human erythrocytes, triplicate, read-out: IC50.

As usually defined, the melting point is the temperature, or range, at which the solid turns liquid. `CC1(CSc2ccccc2)COC2(CCCCC2)OO1` (stereo not drawn) [4c, 3-Methyl-3-phenylsulfanylmethyl-1,2,5-trioxa-spiro[5.5]undecane] displayed a melting point of 45 to 46 °C. Same read-out and setting: for `CC1(CSc2ccc(Cl)cc2)COC2(CCCC2)OO1` (stereo not drawn) [4d, 8-(4-Chloro-phenylsulfanylmethyl)-8-methyl-6,7,10 trioxa-spiro[4.5]decane] the value was 69.8 to 70 °C. As a reminder, the IC50 is the concentration that inhibits the measured activity by half. Turning to `CC1(CSc2ccccc2)COC2(CCC2)OO1` (stereo not drawn) [4e, 7-Methyl-7-phenylsulfanylmethyl-5,6,9-trioxa-spiro[3.5]nonane], in the data set with K1 Plasmodium falciparum (setting [1]), the IC50 is 314 nM.

In the case of `CC1(CSc2ccccc2)COC2(OO1)C1CC3CC(C1)CC2C3` (stereo not drawn) [4f, Adamantyl Trioxane], the IC50 in the data set with K1 Plasmodium falciparum (setting [1]) was 285 nM. Consider `CC1(CSc2ccccc2)COC2(CCCCCCCCCCC2)OO1` (stereo not drawn) [4j, 3-Methyl-3-phenylsulfanylmethyl-1,2,5-trioxa-spiro[5.11]heptadecane], for which the melting point was found to be 89 °C. Besides, the half-inhibitory concentration (IC50) with K1 Plasmodium falciparum (setting [1]) turned out to be 135 nM. With `CC1(CSc2ccc(Cl)cc2)COC2(CCCCCCCCCCC2)OO1` (stereo not drawn) [4k, 3-(4-Chloro-phenylsulfanylmethyl)-3-methyl-1,2,5-trioxa-spiro[5.11]heptadecane], the melting point is 93 to 94 °C. On to `CC1(CS(=O)(=O)c2ccccc2)COC2(CCCCC2)OO1` (stereo not drawn) [8c, 3-Benzenesulfonylmethyl-3-methyl-1,2,5-trioxa-spiro[5.5]undecane], for which the melting point lay within 88 to 89 °C.

Compound `CC1(CS(=O)(=O)c2ccccc2)COC2(CCC2)OO1` (stereo not drawn) [8e, 7-Benzenesulfonylmethyl-7-methyl-5,6,9-trioxa-spiro[3.5]nonane] had a melting point of 96 to 97 °C.

The compound `CC1(CS(=O)(=O)c2ccccc2)COC2(OO1)C1CC3CC(C1)CC2C3` (stereo not drawn) [8f, Adamantyl sulfone trioxane] had a melting point of 126 to 127 °C. Also, the IC50 in the data set with K1 Plasmodium falciparum (setting [1]) turned out to be 329 nM. For the compound `CC1(CS(=O)(=O)c2ccccc2)COC2(CCC(C(C)(C)C)CC2)OO1` (stereo not drawn) [8g, 3-Benzenesulfonylmethyl-9-tert-butyl-3-methyl-1,2,5-trioxa-spiro[5.5]undecane], the melting point was determined as 154 °C. With `CC1(CS(=O)(=O)c2ccccc2)COC2(CCC(=O)CC2)OO1` (stereo not drawn) [8h, 3-Benzenesulfonylmethyl-3-methyl-1,2,5-trioxa-spiro[5.5]undecan-9-one], the melting point was determined as 96 °C. Turning to `CC1(CS(=O)(=O)c2ccc(Cl)cc2)COC2(CCCCC2)OO1` (stereo not drawn) [8i, 3-(4-Chloro-benzenesulfonylmethyl)-3-methyl-1,2,5-trioxa-spiro[5.5]undecane], the melting point fell in the range of 86 to 87 °C. Further, in the data set with K1 Plasmodium falciparum (setting [1]), the IC50 worked out at 35 nM.

For `CC1(CS(=O)(=O)c2ccccc2)COC2(CCCCCCCCCCC2)OO1` (stereo not drawn) [8k, 3-Benzenesulfonylmethyl-3-methyl-1,2,5-trioxa-spiro[5.11]heptadecane], the melting point lay within 123 to 124 °C. For the compound `C[C@@H]1CC[C@H]2[C@@H](C)C(=O)O[C@@H]3O[C@@]4(C)CC[C@@H]1[C@]32OO4` [Artemisinin, reference compound], the IC50 in the data set on K1 Plasmodium falciparum (setting [1]) worked out at 12 nM. In turn, `CCN(CC)CCCC(C)Nc1ccnc2cc(Cl)ccc12` (stereo not drawn) [Chloroquine, reference compound] came in with an IC50 in the data set on K1 Plasmodium falciparum (Plasmodium falciparum, K1, Erythrocyte) of 210 nM.
